Measurements reported in patent publication USRE48461E1, “Modulation of androgen receptor expression” (Ionis Pharmaceuticals, Inc., priority 2012, dated 2021).

Assays:
[1] = Body and organ weights in cynomolgus monkeys; details: cynomolgus monkey, 40 mg/kg s.c.
[2] = Full-length oligonucleotide concentration in kidney and liver of cynomolgus monkeys; details: cynomolgus monkey, 40 mg/kg subcutaneously
Method: (§1) Prior to the study, the monkeys were kept in quarantine for a 30-day period, during which the animals were observed daily for general health. The monkeys were 2-4 years old and weighed between 2 and 4 kg. Thirteen groups of four randomly assigned male cynomolgus monkeys each were injected subcutaneously with ISIS oligonucleotide or PBS. PBS solution or ISIS oligonucleotides, at a dose of 40 mg/kg, were administered with a loading regimen consisting of four doses on the first week of the study (days 1, 3, 5, and 7), followed by a maintenance regimen consisting of once weekly administration starting on Day 14 (weeks 2 to 6). Subcutaneous injections were performed in clock-wise rotations at 4 sites on the back; one site per dose. The injection sites were delineated by tattoo, while sedated using ketamine, and were separated by a minimum of 3 cm.
The concentrations of the full-length oligonucleotide in the kidney and the liver of select treatment groups were measured. The method used is a modification of previously published methods (Leeds et al., 1996; Geary et al., 1999) which consist of a phenol-chloroform (liquid-liquid) extraction followed by a solid phase extraction.

[3] = Hematological parameters in cynomolgus monkeys; details: cynomolgus monkey, 40 mg/kg s.c., day 44
Method: as §1
To evaluate any effect of ISIS oligonucleotides in cynomolgus monkeys on hematologic parameters, blood samples of approximately 0.5 mL of blood was collected day 44 from each of the available study animals in tubes containing K2-EDTA. Samples were analyzed for red blood cell (RBC) count, white blood cells (WBC) count, platelet count, hemoglobin content and hematocrit, using an ADVIA2120i hematology analyzer (SIEMENS, USA).

[4] = system: AR-V7; assay: Western blot of AR-V7 in MDV3100-resistant C4-2B cells; assay type: cell-based, human; details: C4-2B MR cells (Example 16)
[5] = system: CWR22-RV1 cells; assay: CWR22-RV1 cell proliferation (CellTiter 96); assay type: cell-based, human; details: RNAiMax, 6 days
[6] = system: full-length AR; assay: Western blot of full-length AR in MDV3100-resistant C4-2B cells; assay type: cell-based, human; details: C4-2B MR cells (Example 16)
[7] = system: C4-2B cells; assay: C4-2B cell proliferation by free uptake (MTT); assay type: cell-based, human; details: day 6
[8] = system: LMR20 cells; assay: MDV3100 IC50 in LMR20 clone compared to parental LnCaP cells; assay type: cell-based, human

TTGATTTAATGGTTGC [ISIS 560131] (MOE and (S)-cEt gapmer chemistry, further chemistry not given here)
tolerability: body and organ weights [1]: well tolerated in terms of the body and organ weights of the monkeys | Oligonucleotide concentration, Kidney [2]: 2029 μg/g tissue | tolerability: hematology [3]: well tolerated in terms of the hematology of the monkeys

GTTGATTTAATGGTTG (all phosphorothioate, sugars by position not given here; further chemistry not fully specified) [ISIS 549458]
levels of AR-V7 (Western analysis) [4]: reduced levels of full-length AR and AR-V7 | Percent inhibition of cell proliferation ([5]; dose 5.0 nM): 0% | Percent inhibition of cell proliferation ([5]; dose 16.7 nM): 17% | Percent inhibition of cell proliferation ([5]; dose 50.0 nM): 40% | levels of full-length AR (Western analysis) [6]: reduced levels of full-length AR and AR-V7 | Percent inhibition of cell proliferation ([7]; dose 0.04 μM): 7% | Percent inhibition of cell proliferation ([7]; dose 0.20 μM): 31% | Percent inhibition of cell proliferation ([7]; dose 1.00 μM): 45% | Percent inhibition of cell proliferation ([7]; dose 5.00 μM): 41%

CNC(=O)c1ccc(N2C(=S)N(c3ccc(C#N)c(C(F)(F)F)c3)C(=O)C2(C)C)cc1F [MDV3100, 4-(3-(4-cyano-3-(trifluoromethyl)phenyl)-5,5-dimethyl-4-oxo-2-thioxoimidazolidin-1-yl)-2-fluoro-N-methylbenzamide, reference compound]
increase in IC50 of MDV3100 in LMR20 compared to parental LnCaP cells [8]: approximately ten-fold increase in IC50
